# Literature values as cited in patent publication US20070154567A1, “Use of mercury to treat cancer” (priority 2006, published 2007).
# Test system: mammary and sarcoma tumor growth in seeded wounds
# Details: 0.2% w/v solution administered to the wound site, mice; cited from earlier work
smiles,measurement,value
[Cl][Hg][Cl] [mercuric chloride],mammary and sarcoma tumor growth in seeded wounds,reduce
